# Measurements from article PMC6152123, “Sites for Dynamic Protein-Carbohydrate Interactions of O- and C-Linked Mannosides on the E. coli FimH Adhesin” (Molecules : A Journal of Synthetic Chemistry and Natural …, 2017).
# Where two headings read alike, the source gives them in different places.
# Assays:
# FimH lectin domain [1] = molecular target: T1, FimH lectin domain (Escherichia coli, UniProt P08191); assay: biochemical; format: binding, E. coli strain J96; settings: for fold by which inhibition potential exceeds parent 115: Table 5; for Kd SPR (nM): Table S2
# T1 sequence (P08191 22-179 limits assumed): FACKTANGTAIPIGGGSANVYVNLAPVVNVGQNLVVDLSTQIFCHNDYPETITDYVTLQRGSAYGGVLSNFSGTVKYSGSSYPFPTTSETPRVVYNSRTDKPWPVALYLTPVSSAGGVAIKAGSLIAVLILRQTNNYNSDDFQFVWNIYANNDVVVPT
# FimH = settings: Table S2; read-out: Kd ITC (converted); cited from earlier work
# FimH lectin domain [2] = molecular target: T1, FimH lectin domain; settings: cited from earlier work
# [3] = Kd (nM), Table 4, SPR detection, sulfonamide and amide spacers
# [4] = Kd (nM), Table 5, SPR, C-linked mannopyranosides
# [5] = Kd SPR (nM), solution affinity by SPR competition, Tables 1-3
# [6] = Table 5, SPR, C-linked mannopyranosides
structure (smiles),measurement,setting,value
O=S(=O)(NCCO[C@H]1O[C@H](CO)[C@@H](O)[C@H](O)[C@@H]1O)c1ccccc1 [Compound 70],Kd,FimH lectin domain [1]; [3],146 ± 26 nM
O=[N+]([O-])c1ccc(S(=O)(=O)NCCO[C@H]2O[C@H](CO)[C@@H](O)[C@H](O)[C@@H]2O)cc1 [Compound 71],Kd,FimH lectin domain [1]; [3],408 ± 52 nM
Cc1ccc(S(=O)(=O)NCCO[C@H]2O[C@H](CO)[C@@H](O)[C@H](O)[C@@H]2O)cc1 [Compound 72],Kd,FimH lectin domain [1]; [3],168 ± 64 nM
CC(C)(C)c1ccc(S(=O)(=O)NCCO[C@H]2O[C@H](CO)[C@@H](O)[C@H](O)[C@@H]2O)cc1 [Compound 73],Kd,FimH lectin domain [1]; [3],122 ± 11 nM
CC(C)c1cc(C(C)C)c(S(=O)(=O)NCCO[C@H]2O[C@H](CO)[C@@H](O)[C@H](O)[C@@H]2O)c(C(C)C)c1 [Compound 74],Kd,FimH lectin domain [1]; [3],37 ± 5 nM
O=S(=O)(NCCO[C@H]1O[C@H](CO)[C@@H](O)[C@H](O)[C@@H]1O)c1cccc2ccccc12 [Compound 75],Kd,FimH lectin domain [1]; [3],148 ± 18 nM
C=CC[C@H]1O[C@H](CO)[C@@H](O)[C@H](O)[C@@H]1O [Compound 78],Kd,FimH lectin domain [1]; [4],118 ± 20 nM
O=C(C[C@H]1O[C@H](CO)[C@@H](O)[C@H](O)[C@@H]1O)Nc1ccccc1 [Compound 91],Kd,FimH lectin domain [1]; [3],372 ± 26 nM
O=C(C[C@H]1O[C@H](CO)[C@@H](O)[C@H](O)[C@@H]1O)NCc1ccccc1 [Compound 92],Kd,FimH lectin domain [1]; [3],397 ± 83 nM
O=C(C[C@H]1O[C@H](CO)[C@@H](O)[C@H](O)[C@@H]1O)NCCCc1ccccc1 [Compound 93],Kd,FimH lectin domain [1]; [3],105 ± 44 nM
same,fold rise of FimH inhibitory capacity versus 91 and 92,FimH lectin domain [1]; SPR Kd,4 fold
CC(=O)Nc1ccc(NC(=O)C[C@H]2O[C@H](CO)[C@@H](O)[C@H](O)[C@@H]2O)cc1 [Compound 94],Kd,FimH lectin domain [1]; [3],227 ± 54 nM
O=C(C[C@H]1O[C@H](CO)[C@@H](O)[C@H](O)[C@@H]1O)Nc1ccc(O)cc1 [Compound 95],Kd,FimH lectin domain [1]; [3],328 ± 63 nM
O=C(C[C@H]1O[C@H](CO)[C@@H](O)[C@H](O)[C@@H]1O)NCCc1ccc(O)cc1 [Compound 96],Kd,FimH lectin domain [1]; [3],970 ± 382 nM
OC[C@H]1O[C@H](CCCSCc2ccccc2)[C@@H](O)[C@@H](O)[C@@H]1O [Compound 106],Kd,FimH lectin domain [1]; [5],25 ± 6.3 nM
CCCCSCCC[C@H]1O[C@H](CO)[C@@H](O)[C@H](O)[C@@H]1O [Compound 107],Kd,FimH lectin domain [1]; [5],22 ± 2.8 nM
CCCSCCC[C@H]1O[C@H](CO)[C@@H](O)[C@H](O)[C@@H]1O [Compound 108],Kd,FimH lectin domain [1]; [5],36 ± 9 nM
CCSCCC[C@H]1O[C@H](CO)[C@@H](O)[C@H](O)[C@@H]1O [Compound 109],Kd,FimH lectin domain [1]; [5],78 ± 5.6 nM
CC(C)SCCC[C@H]1O[C@H](CO)[C@@H](O)[C@H](O)[C@@H]1O [Compound 110],Kd,FimH lectin domain [1]; [5],32 ± 4.1 nM
OC[C@H]1O[C@H](C/C=C/c2ccccc2)[C@@H](O)[C@@H](O)[C@@H]1O [Compound 115],Kd,FimH lectin domain [1]; [4],182 ± 25 nM
same,fold more active than amide-linked analog 91,FimH lectin domain [1]; SPR Kd,2 fold
OC[C@H]1O[C@H](C/C=C/c2ccc(-c3ccccc3)cc2)[C@@H](O)[C@@H](O)[C@@H]1O [Compound 116],Kd,FimH lectin domain [1]; [4],17 ± 3.5 nM
same,fold by which inhibition potential exceeds parent 115,FimH lectin domain [1]; SPR Kd,~4 fold
same,Kd,FimH,58 ± 14 nM
OC[C@H]1O[C@H](C/C=C/c2ccccc2-c2ccccc2)[C@@H](O)[C@@H](O)[C@@H]1O [Compound 117],Kd,FimH lectin domain [1]; [4],6.9 ± 5.7 nM
same,fold by which inhibition potential exceeds parent 115,FimH lectin domain [1]; SPR Kd,~26 fold
OC[C@H]1O[C@H](C/C=C/c2cccc3ccccc23)[C@@H](O)[C@@H](O)[C@@H]1O [Compound 118],Kd (nM),FimH lectin domain [1]; [6],nf
same,Kd SPR (nM),FimH lectin domain [1],nf
same,Kd,FimH,23 ± 5.5 nM
OC[C@H]1O[C@H](CCCc2ccccc2)[C@@H](O)[C@@H](O)[C@@H]1O [Compound 119],Kd,FimH lectin domain [1]; [4],49 ± 5.3 nM
OC[C@H]1O[C@H](CCCc2ccc(-c3ccccc3)cc2)[C@@H](O)[C@@H](O)[C@@H]1O [Compound 120],Kd (nM),FimH lectin domain [1]; [6],nf
same,Kd SPR (nM),FimH lectin domain [1],nf
OC[C@H]1O[C@H](CCCc2ccccc2-c2ccccc2)[C@@H](O)[C@@H](O)[C@@H]1O [Compound 121],Kd,FimH lectin domain [1]; [4],123 ± 21 nM
OC[C@H]1O[C@H](CCCc2cccc3ccccc23)[C@@H](O)[C@@H](O)[C@@H]1O [Compound 122],Kd (nM),FimH lectin domain [1]; [6],nf
same,Kd SPR (nM),FimH lectin domain [1],nf
CCC[C@H]1O[C@H](CO)[C@@H](O)[C@H](O)[C@@H]1O [Compound 123],Kd,FimH lectin domain [1]; [4],266 ± 26 nM
CCCCCCO[C@H]1O[C@H](CO)[C@@H](O)[C@H](O)[C@@H]1O [hexyl],Kd,"FimH lectin domain [2]; solution affinity by SPR, read-out: Kd SPR",10 nM
"CC(=O)N[C@H]1[C@H](O[C@H]2[C@H](O)[C@@H](NC(C)=O)C(O)O[C@@H]2CO)O[C@H](CO)[C@@H](O[C@@H]2O[C@H](CO[C@H]3O[C@H](CO)[C@@H](O)[C@H](O)[C@@H]3O)[C@@H](O)[C@H](O[C@H]3O[C@H](CO)[C@@H](O)[C@H](O)[C@@H]3O)[C@@H]2O)[C@@H]1O (stereo partly shown) [oligomannoside-3, reference compound]",KA,"FimH lectin domain [1]; Figure S19, fit of solution affinity model to inhibition curve",49462067.1 M⁻¹
same,Kd,"FimH lectin domain [1]; Figure S19, fit of solution affinity model to inhibition curve, read-out: KD",20.2 nM
same,Kd,"FimH lectin domain [2]; highest-affinity natural epitope for FimH, Fab IC10 chip, read-out: Kd",20 nM
